Results as given in the CheMixHub viscosity set.
Where “and” joins values, the source holds several entries; their conditions need not be identical. Equal entries are not always repeated. ± gives the uncertainty stated by the source.

Structure (SMILES): C1CCOC1
- viscosity (293.15 K, 101.33 kPa): 0.48 ± 0.004 mPa·s
- viscosity (298 K, 101 kPa): 0.4608 ± 0.0049 mPa·s
- viscosity (298 K, 101.33 kPa): 0.461 ± 0.011 mPa·s
- viscosity (298.15 K, 101.33 kPa): 0.53 ± 0.004 mPa·s and 0.481 ± 0.014 mPa·s and 0.472 ± 0.007 mPa·s
- viscosity (303 K, 101 kPa): 0.42 ± 0.03 mPa·s and 0.42 ± 0.05 mPa·s
- viscosity (303 K, 101.3 kPa): 0.422 ± 0.026 mPa·s
- viscosity (303.15 K, 101.32 kPa): 0.449 ± 0.012 mPa·s
- viscosity (303.15 K, 101.33 kPa): 0.4496 ± 0.034 mPa·s and 0.45 ± 0.004 mPa·s and 0.45 ± 0.007 mPa·s
- viscosity (308 K, 101.33 kPa): 0.42 ± 0.01 mPa·s
- viscosity (313 K, 101 kPa): 0.39 ± 0.03 mPa·s and 0.39 ± 0.05 mPa·s
- viscosity (313 K, 101.3 kPa): 0.402 ± 0.024 mPa·s
- viscosity (313.15 K, 100 kPa): 0.39 ± 0.016 mPa·s
- viscosity (313.15 K, 101.33 kPa): 0.4066 ± 0.031 mPa·s
- viscosity (323.15 K, 101.33 kPa): 0.3696 ± 0.028 mPa·s

Structure (SMILES): CC(C)CC(=O)O
- viscosity (293.15 K, 101.33 kPa): 2.411 ± 0.024 mPa·s
- viscosity (313.15 K, 101.33 kPa): 1.672 ± 0.017 mPa·s

Structure (SMILES): CC1COC(=O)O1 (centres undefined)
- viscosity (293.15 K, 101 kPa): 2.938 ± 0.18 mPa·s and 2.738 ± 0.065 mPa·s and 2.72 ± 0.02 mPa·s
- viscosity (293.15 K, 101.3 kPa): 2.746 ± 0.058 mPa·s and 2.763 ± 0.12 mPa·s and 2.762 ± 0.044 mPa·s
- viscosity (293.15 K, 101.33 kPa): 2.721 ± 0.031 mPa·s
- viscosity (298.15 K, 100 kPa): 2.53 ± 0.055 mPa·s
- viscosity (298.15 K, 101 kPa): 2.531 ± 0.037 mPa·s and 2.468 ± 0.064 mPa·s and 2.51 mPa·s
- viscosity (303.15 K, 99.7 kPa): 2.212 ± 0.31 mPa·s
- viscosity (303.15 K, 101 kPa): 2.24 ± 0.063 mPa·s and 2.3 ± 0.02 mPa·s and 2.29 ± 0.02 mPa·s
- viscosity (303.15 K, 101.3 kPa): 2.246 ± 0.047 mPa·s and 2.3 ± 0.1 mPa·s and 2.149 ± 0.035 mPa·s
- viscosity (303.15 K, 101.33 kPa): 2.237 ± 0.025 mPa·s
- viscosity (308.15 K, 101.3 kPa): 2.049 ± 0.043 mPa·s and 2.046 ± 0.026 mPa·s
- viscosity (313.15 K, 99.7 kPa): 1.998 ± 0.28 mPa·s
- viscosity (313.15 K, 101.3 kPa): 1.879 ± 0.04 mPa·s and 1.902 ± 0.1 mPa·s
- viscosity (313.15 K, 101.33 kPa): 1.863 ± 0.021 mPa·s
- viscosity (318.15 K, 101 kPa): 1.654 ± 0.1 mPa·s and 1.724 ± 0.062 mPa·s and 1.85 ± 0.02 mPa·s
- viscosity (318.15 K, 101.3 kPa): 1.73 ± 0.037 mPa·s and 1.755 ± 0.1 mPa·s and 1.703 ± 0.022 mPa·s
- viscosity (323.15 K, 99.7 kPa): 1.766 ± 0.25 mPa·s
- viscosity (323.15 K, 101 kPa): 1.538 ± 0.093 mPa·s and 1.595 ± 0.062 mPa·s
- viscosity (323.15 K, 101.3 kPa): 1.6 ± 0.034 mPa·s

Structure (SMILES): CCCC(=O)[O-].OCC[NH2+]CCO
- viscosity (293.15 K, 101.3 kPa): 1832 ± 110 mPa·s
- viscosity (298.15 K, 101.3 kPa): 1226 ± 70 mPa·s
- viscosity (303.15 K, 101.3 kPa): 839.8 ± 45 mPa·s
- viscosity (308.15 K, 101.3 kPa): 588.7 ± 30 mPa·s
- viscosity (313.15 K, 101.3 kPa): 421.1 ± 21 mPa·s
- viscosity (318.15 K, 101.3 kPa): 307.1 ± 14 mPa·s
- viscosity (323.15 K, 101.3 kPa): 227.9 ± 10 mPa·s

Structure (SMILES): CCCc1ccccc1
- viscosity (303.15 K, 101 kPa): 0.7591 ± 0.0049 mPa·s
- viscosity (303.15 K, 101.3 kPa): 0.75 ± 0.0049 mPa·s
- viscosity (308.15 K, 101.33 kPa): 0.7001 ± 0.0093 mPa·s
- viscosity (313.15 K, 102 kPa): 0.649 ± 0.021 mPa·s
- viscosity (323.15 K, 102 kPa): 0.573 ± 0.021 mPa·s

Structure (SMILES): CCOCCn1cc[n+](C)c1.C[C@@H](O)[C@H](N)C(=O)[O-]
- viscosity (298.15 K, 100 kPa): 1133 ± 120 mPa·s
- viscosity (303.15 K, 100 kPa): 730.3 ± 66 mPa·s
- viscosity (308.15 K, 100 kPa): 438.8 ± 32 mPa·s
- viscosity (313.15 K, 100 kPa): 312.5 ± 20 mPa·s
- viscosity (318.15 K, 100 kPa): 206.8 ± 10 mPa·s
- viscosity (323.15 K, 100 kPa): 153.8 ± 6 mPa·s

Structure (SMILES): CCOCCn1cc[n+](CCC#N)c1.O=S(=O)([N-]S(=O)(=O)C(F)(F)F)C(F)(F)F
- viscosity (293.15 K, 101.33 kPa): 401.1 ± 16 mPa·s
- viscosity (303.15 K, 101.33 kPa): 235.6 ± 8.8 mPa·s
- viscosity (313.15 K, 101.33 kPa): 146.2 ± 5.1 mPa·s
- viscosity (323.15 K, 101.33 kPa): 105 ± 3.5 mPa·s

Structure (SMILES): COc1ccccc1
- viscosity (293.15 K, 101.33 kPa): 1.05 ± 0.012 mPa·s and 1.143 ± 0.06 mPa·s
- viscosity (298.15 K, 101 kPa): 0.9912 ± 0.0094 mPa·s and 1 ± 0.04 mPa·s and 0.9785 ± 0.025 mPa·s
- viscosity (298.15 K, 101.3 kPa): 0.99 ± 0.025 mPa·s and 0.991 ± 0.008 mPa·s
- viscosity (303 K, 100 kPa): 0.9804 ± 0.2 mPa·s
- viscosity (303 K, 101 kPa): 0.9804 ± 0.012 mPa·s
- viscosity (303 K, 101.3 kPa): 0.981 ± 0.13 mPa·s
- viscosity (303.15 K, 100 kPa): 0.923 ± 0.037 mPa·s
- viscosity (303.15 K, 101.3 kPa): 0.916 ± 0.023 mPa·s and 0.915 ± 0.015 mPa·s and 0.923 ± 0.008 mPa·s
- viscosity (308.15 K, 101 kPa): 0.856 ± 0.05 mPa·s and 0.856 ± 0.018 mPa·s and 0.8422 ± 0.022 mPa·s
- viscosity (313 K, 100 kPa): 0.7623 ± 0.15 mPa·s
- viscosity (313 K, 101 kPa): 0.7623 ± 0.0098 mPa·s
- viscosity (313.15 K, 100 kPa): 0.764 ± 0.031 mPa·s
- viscosity (318.15 K, 101 kPa): 0.745 ± 0.05 mPa·s and 0.745 ± 0.016 mPa·s
- viscosity (318.15 K, 101.33 kPa): 0.739 ± 0.02 mPa·s
- viscosity (323 K, 100 kPa): 0.6146 ± 0.12 mPa·s
- viscosity (323 K, 101 kPa): 0.6146 ± 0.008 mPa·s
- viscosity (323.15 K, 101 kPa): 0.692 ± 0.05 mPa·s and 0.692 ± 0.015 mPa·s and 0.72 ± 0.02 mPa·s
- viscosity (323.15 K, 101.33 kPa): 0.691 ± 0.024 mPa·s and 0.691 ± 0.008 mPa·s and 0.69 ± 0.019 mPa·s

Structure (SMILES): C[N+](C)(C)CCO.O=S(=O)([N-]S(=O)(=O)C(F)(F)F)C(F)(F)F
- viscosity (298.15 K, 101 kPa): 144.8 ± 6.1 mPa·s
- viscosity (313.15 K, 101 kPa): 56.44 ± 2.1 mPa·s
- viscosity (318.15 K, 101 kPa): 46.77 ± 2.6 mPa·s
- viscosity (323.15 K, 101 kPa): 39.28 ± 2.2 mPa·s

Structure (SMILES): O=C(O)CBr
- viscosity (323.15 K, 101 kPa): 3.65 ± 0.13 mPa·s
